{"source": "patent US7470684B2", "about": "“Spiropiperidine derivatives as NK3 antagonists” (Hoffmann-La Roche Inc., priority 2007, dated 2008)", "note": "Structures can show the parent of a compound that is named as a salt.", "data": [{"target": "T1, human NK3 receptor (Homo sapiens, UniProt P29371)", "T1 construct": "expressed in transfected cells; host or cells: HEK293 cells, transiently transfected; membranes", "T1 sequence (P29371 1-465)": "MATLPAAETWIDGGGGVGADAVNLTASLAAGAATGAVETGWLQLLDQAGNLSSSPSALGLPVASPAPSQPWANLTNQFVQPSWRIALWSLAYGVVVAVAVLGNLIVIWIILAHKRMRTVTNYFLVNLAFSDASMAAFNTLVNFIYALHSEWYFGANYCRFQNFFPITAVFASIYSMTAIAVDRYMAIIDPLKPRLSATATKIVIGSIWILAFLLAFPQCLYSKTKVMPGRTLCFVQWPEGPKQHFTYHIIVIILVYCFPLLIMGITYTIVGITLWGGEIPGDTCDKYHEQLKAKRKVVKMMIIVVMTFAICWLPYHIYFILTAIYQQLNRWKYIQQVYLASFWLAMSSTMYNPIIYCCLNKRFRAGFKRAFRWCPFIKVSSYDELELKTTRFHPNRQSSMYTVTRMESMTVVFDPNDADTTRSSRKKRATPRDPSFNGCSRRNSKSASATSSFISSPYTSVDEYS", "experiment": "[3H]SR142801 competition binding assay", "conditions": "not given", "procedure,_shortened": "(§1)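 Membranes from HEK293 cells transiently expressing human NK3 receptor incubated 75 min at RT with [3H]SR142801 at its KD and compound (0.0003-10 μM) in pH 7.4 Tris/MnCl2 buffer. Filtration and scintillation counting, nonspecific binding with 10 μM SB222200. IC50 from Hill fit, Ki by Cheng-Prusoff, duplicates.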", "units": {"Ki": "nM"}, "values": [{"smiles": "O=C1Nc2ccc(F)cc2C2(CCN(CCCC(C(=O)NCc3ccc(F)cc3)c3ccc(Cl)c(Cl)c3)CC2)O1", "note": "(centres unmarked) [Example 132, 2-(3,4-dichlorophenyl)-N-(4-fluorobenzyl)-5-(6-fluoro-2-oxo-1,2-dihydro-1′H-spiro[3,1-benzoxazine-4,4′-piperidin]-1′-yl)-pentanamide]", "Ki": 65.7}, {"smiles": "CN(Cc1ccc(Cl)cc1)C(=O)[C@H](CCN1CCC2(CC1)OC(=O)N(C)c1ccc(F)cc12)c1ccc(Cl)c(Cl)c1", "note": "[Example 147, (2R)-N-(4-chlorobenzyl)-2-(3,4-dichlorophenyl)-4-(6-fluoro-1-methyl-2-oxo-1,2-dihydro-1′H-spiro[3,1-benzoxazine-4,4′-piperidin]-1′-yl)-N-methylbutanamide]", "Ki": 1.8}]}, {"target": "T1, human NK3 receptor", "experiment": "[3H]SR142801 competition binding assay", "conditions": "[3H]SR142801 displacement, membranes of HEK293 cells transiently expressing recombinant human NK3 receptor; read-out: hNK3 Ki", "procedure,_shortened": "as §1", "units": {"Ki": "nM"}, "values": [{"smiles": "Cc1ccc(CN(C)C(=O)C(CCN2CCC3(CC2)OC(=O)N(C)c2ccc(F)cc23)c2ccc(Cl)c(Cl)c2)cc1", "note": "(centres unmarked) [Example 102, 2-(3,4-dichlorophenyl)-4-(6-fluoro-1-methyl-2-oxo-1,2-dihydro-1′H-spiro[3,1-benzoxazine-4,4′-piperidin]-1′-yl)-N-methyl-N-(4-methylbenzyl)butanamide]", "Ki": 2.1}, {"smiles": "CN1C(=O)OC2(CCN(CCC(C(=O)NCc3ccc(-c4csnn4)cc3)c3ccc(Cl)c(Cl)c3)CC2)c2cc(F)ccc21", "note": "(centres unmarked) [Example 109, 2-(3,4-dichlorophenyl)-4-(6-fluoro-1-methyl-2-oxo-1,2-dihydro-1′H-spiro[3,1-benzoxazine-4,4′-piperidin]-1′-yl)-N-[4-(1,2,3-thiadiazol-4-yl)benzyl]butanamide]", "Ki": 19}, {"smiles": "Cc1ccsc1CNC(=O)C(CCCN1CCC2(CC1)OC(=O)Nc1ccc(F)cc12)c1ccc(Cl)c(Cl)c1", "note": "(centres unmarked) [Example 116, 2-(3,4-dichlorophenyl)-5-(6-fluoro-2-oxo-1,2-dihydro-1′H-spiro[3,1-benzoxazine-4,4′-piperidin]-1′-yl)-N-[(3-methyl-2-thienyl)methyl]pentanamide]", "Ki": 66.8}, {"smiles": "O=C1Nc2ccc(F)cc2C2(CCN(CCCC(C(=O)NCc3ccc(C(F)(F)F)cc3)c3ccc(Cl)c(Cl)c3)CC2)O1", "note": "(centres unmarked) [Example 135, 2-(3,4-dichlorophenyl)-5-(6-fluoro-2-oxo-1,2-dihydro-1′H-spiro[3,1-benzoxazine-4,4′-piperidin]-1′-yl)-N-[4-(trifluoromethyl)benzyl]pentanamide]", "Ki": 90.3}]}, {"target": "T1, human NK3 receptor", "experiment": "[3H]SR142801 competition binding assay", "conditions": "hNK3 Ki, [3H]SR142801 displacement, membranes of HEK293 cells transiently expressing recombinant human NK3 receptor", "procedure,_shortened": "as §1", "units": {"Ki": "nM"}, "values": [{"smiles": "CN(Cc1cccc(F)c1)C(=O)C(CCN1CCC2(CC1)OC(=O)N(C)c1ccc(F)cc12)c1ccc(Cl)c(Cl)c1", "note": "(centres unmarked) [Example 101, 2-(3,4-dichlorophenyl)-N-(3-fluorobenzyl)-4-(6-fluoro-1-methyl-2-oxo-1,2-dihydro-1′H-spiro[3,1-benzoxazine-4,4′-piperidin]-1′-yl)-N-methyl-butanamide]", "Ki": 1.3}, {"smiles": "CN1C(=O)OC2(CCN(CCC(C(=O)NCc3cccc(OC(F)(F)F)c3)c3ccc(Cl)c(Cl)c3)CC2)c2cc(F)ccc21", "note": "(centres unmarked) [Example 103, 2-(3,4-dichlorophenyl)-4-(6-fluoro-1-methyl-2-oxo-1,2-dihydro-1′H-spiro[3,1-benzoxazine-4,4′-piperidin]-1′-yl)-N-[3-(trifluoromethoxy)benzyl]butanamide]", "Ki": 3.7}, {"smiles": "CN(Cc1cccc(C(F)(F)F)c1)C(=O)C(CCN1CCC2(CC1)OC(=O)N(C)c1ccc(F)cc12)c1ccc(Cl)c(Cl)c1", "note": "(centres unmarked) [Example 104, 2-(3,4-dichlorophenyl)-4-(6-fluoro-1-methyl-2-oxo-1,2-dihydro-1′H-spiro[3,1-benzoxazine-4,4′-piperidin]-1′-yl)-N-methyl-N-[3-(trifluoromethyl)benzyl]butanamide]", "Ki": 1.6}, {"smiles": "CN(Cc1ccc(F)cc1)C(=O)C(CCN1CCC2(CC1)OC(=O)N(C)c1ccc(F)cc12)c1ccc(Cl)c(Cl)c1", "note": "(centres unmarked) [Example 105, 2-(3,4-dichlorophenyl)-N-(4-fluorobenzyl)-4-(6-fluoro-1-methyl-2-oxo-1,2-dihydro-1′H-spiro[3,1-benzoxazine-4,4′-piperidin]-1′-yl)-N-methyl-butanamide]", "Ki": 1}, {"smiles": "CN1C(=O)OC2(CCN(CCC(C(=O)NCc3ccc(F)cc3)c3ccc(Cl)c(Cl)c3)CC2)c2cc(F)ccc21", "note": "(centres unmarked) [Example 106, 2-(3,4-dichlorophenyl)-N-(4-fluorobenzyl)-4-(6-fluoro-1-methyl-2-oxo-1,2-dihydro-1′H-spiro[3,1-benzoxazine-4,4′-piperidin]-1′-yl)-butanamide]", "Ki": 2.7}, {"smiles": "COc1ccc(CNC(=O)C(CCN2CCC3(CC2)OC(=O)N(C)c2ccc(F)cc23)c2ccc(Cl)c(Cl)c2)cc1", "note": "(centres unmarked) [Example 107, 2-(3,4-dichlorophenyl)-4-(6-fluoro-1-methyl-2-oxo-1,2-dihydro-1′H-spiro[3,1-benzoxazine-4,4′-piperidin]-1′-yl)-N-(4-methoxybenzyl)butanamide]", "Ki": 5.4}, {"smiles": "CN1C(=O)OC2(CCN(CCC(C(=O)NCc3cccc(C(F)(F)F)c3)c3ccc(Cl)c(Cl)c3)CC2)c2cc(F)ccc21", "note": "(centres unmarked) [Example 108, 2-(3,4-dichlorophenyl)-4-(6-fluoro-1-methyl-2-oxo-1,2-dihydro-1′H-spiro[3,1-benzoxazine-4,4′-piperidin]-1′-yl)-N-[3-(trifluoromethyl)benzyl]butanamide]", "Ki": 3}, {"smiles": "CN1C(=O)OC2(CCN(CCC(C(=O)NCc3ccc(OC(F)(F)F)cc3)c3ccc(Cl)c(Cl)c3)CC2)c2cc(F)ccc21", "note": "(centres unmarked) [Example 110, 2-(3,4-dichlorophenyl)-4-(6-fluoro-1-methyl-2-oxo-1,2-dihydro-1′H-spiro[3,1-benzoxazine-4,4′-piperidin]-1′-yl)-N-[4-(trifluoromethoxy)benzyl]butanamide]", "Ki": 3.2}, {"smiles": "CN1C(=O)OC2(CCN(CCC(C(=O)NCc3ccc(C#N)cc3)c3ccc(Cl)c(Cl)c3)CC2)c2cc(F)ccc21", "note": "(centres unmarked) [Example 111, N-(4-cyanobenzyl)-2-(3,4-dichlorophenyl)-4-(6-fluoro-1-methyl-2-oxo-1,2-dihydro-1′H-spiro[3,1-benzoxazine-4,4′-piperidin]-1′-yl)butanamide]", "Ki": 3.1}, {"smiles": "O=C1Nc2ccc(F)cc2C2(CCN(CCCC(C(=O)NCc3ccccc3OC(F)(F)F)c3ccc(Cl)c(Cl)c3)CC2)O1", "note": "(centres unmarked) [Example 118, 2-(3,4-dichlorophenyl)-5-(6-fluoro-2-oxo-1,2-dihydro-1′H-spiro[3,1-benzoxazine-4,4′-piperidin]-1′-yl)-N-[2-(trifluoromethoxy)benzyl]pentanamide]", "Ki": 64.4}, {"smiles": "CN(Cc1ccc(Cl)cc1)C(=O)C(CCCN1CCC2(CC1)OC(=O)Nc1ccc(F)cc12)c1ccc(Cl)c(Cl)c1", "note": "(centres unmarked) [Example 120, N-(4-chlorobenzyl)-2-(3,4-dichlorophenyl)-5-(6-fluoro-2-oxo-1,2-dihydro-1′H-spiro[3,1-benzoxazine-4,4′-piperidin]-1′-yl)-N-methylpentanamide]", "Ki": 46.3}, {"smiles": "CN(Cc1ccc(C(F)(F)F)cc1)C(=O)C(CCCN1CCC2(CC1)OC(=O)Nc1ccc(F)cc12)c1ccc(Cl)c(Cl)c1", "note": "(centres unmarked) [Example 121, 2-(3,4-dichlorophenyl)-5-(6-fluoro-2-oxo-1,2-dihydro-1′H-spiro[3,1-benzoxazine-4,4′-piperidin]-1′-yl)-N-methyl-N-[4-(trifluoromethyl)benzyl]pentanamide]", "Ki": 64.7}, {"smiles": "O=C1Nc2ccc(F)cc2C2(CCN(CCCC(C(=O)NCc3ccc(Cl)cc3)c3ccc(Cl)c(Cl)c3)CC2)O1", "note": "(centres unmarked) [Example 125, N-(4-chlorobenzyl)-2-(3,4-dichlorophenyl)-5-(6-fluoro-2-oxo-1,2-dihydro-1′H-spiro[3,1-benzoxazine-4,4′-piperidin]-1′-yl)pentanamide]", "Ki": 98.3}, {"smiles": "CN(Cc1cccc(C(F)(F)F)c1)C(=O)C(CCCN1CCC2(CC1)OC(=O)Nc1ccc(F)cc12)c1ccc(Cl)c(Cl)c1", "note": "(centres unmarked) [Example 130, 2-(3,4-dichlorophenyl)-5-(6-fluoro-2-oxo-1,2-dihydro-1′H-spiro[3,1-benzoxazine-4,4′-piperidin]-1′-yl)-N-methyl-N-[3-(trifluoromethyl)benzyl]pentanamide]", "Ki": 91.9}, {"smiles": "CN(Cc1ccc(F)cc1)C(=O)C(CCCN1CCC2(CC1)OC(=O)Nc1ccc(F)cc12)c1ccc(Cl)c(Cl)c1", "note": "(centres unmarked) [Example 131, 2-(3,4-dichlorophenyl)-N-(4-fluorobenzyl)-5-(6-fluoro-2-oxo-1,2-dihydro-1′H-spiro[3,1-benzoxazine-4,4′-piperidin]-1′-yl)-N-methylpentanamide]", "Ki": 69.2}, {"smiles": "Cc1ccc(CN(C)C(=O)C(CCCN2CCC3(CC2)OC(=O)Nc2ccc(F)cc23)c2ccc(Cl)c(Cl)c2)cc1", "note": "(centres unmarked) [Example 138, 2-(3,4-dichlorophenyl)-5-(6-fluoro-2-oxo-1,2-dihydro-1′H-spiro[3,1-benzoxazine-4,4′-piperidin]-1′-yl)-N-methyl-N-(4-methylbenzyl)pentanamide]", "Ki": 95.4}, {"smiles": "C[C@H](NC(=O)[C@H](CCN1CCC2(CC1)OC(=O)Nc1ccc(F)cc12)c1ccc(Cl)c(Cl)c1)c1ccccc1", "note": "[Example 146, (2R)-2-(3,4-dichlorophenyl)-4-(6-fluoro-2-oxo-1,2-dihydro-1′H-spiro[3,1-benzoxazine-4,4′-piperidin]-1′-yl)-N-[(1S)-1-phenylethyl]butanamidehydrochloride]", "Ki": 5.7}]}]}
